The test system of data set [1] is rat. The conditions noted are these: Carcinogenicity, fischer, Oral, Feed, dose end: 104 week, group: systemic.
Data set [2] deals with mouse. Particulars: Carcinogenicity, b6c3f1, Oral, Feed, dose end: 104 week, group: systemic.
The subject of data set [3] is rat. Particulars: Sub-acute repeat dose toxicity, sprague dawley, Oral, Feed, dose end: 28 day, group: systemic.
In data set [4] the test system is rat. Particulars: Multigenerational reproductive toxicity study, sprague dawley, Oral, Gavage/Intubation, dose end: 2 generation, group: parental.
Data set [5] deals with rabbit. The conditions noted are these: Prenatal developmental toxicity study, new zealand white, Oral, Gavage/Intubation, dose end: 18 GD, group: maternal.
The test system of data set [6] is rat. The conditions noted are these: Combined chronic toxicity/carcinogenicity; fischer; Inhalation; Whole-Body; dose end: 26 month; group: systemic; systemic / pathology microscopic / spleen / congestion + systemic / pathology microscopic / eye / degeneration + systemic / pathology ….
The test system of data set [7] is rat. Particulars: Neurotoxicity screening battery; sprague dawley; Oral; Gavage/Intubation; dose end: 13 week; group: cannot be grouped; systemic / hematology / [other] / [other] + systemic / hematology / heinz body / heinz body + systemic / hematology / leukocyte (wbc) count ….
The test system of data set [8] is mouse. Particulars: Subchronic oral toxicity in rodents, b6c3f1, Water, dose end: 13 week, group: systemic.
The subject of data set [9] is rat. The conditions noted are these: Prenatal developmental toxicity study, sprague dawley, Oral, Gavage/Intubation, dose end: 15 GD, group: maternal.
The test system of data set [10] is rat. The conditions noted are these: Prenatal developmental toxicity study, sprague dawley, Oral, Gavage/Intubation, dose end: 15 GD, group: maternal. The source holds these as a separate data set.
Data set [11] concerns mouse. Particulars: Sub-acute repeat dose toxicity, b6c3f1, Oral, Water, dose end: 14 day, group: systemic.
Data set [12] concerns mouse. Particulars: Combined chronic toxicity/carcinogenicity; cd1; Inhalation; Whole-Body; dose end: 18 month; group: systemic; systemic / pathology microscopic / nose / [other] + systemic / pathology microscopic / nose / degeneration + systemic / pathology ….
Data set [13] deals with rabbit. Particulars: Prenatal developmental toxicity study, new zealand white, Oral, Gavage/Intubation, dose end: 18 GD, group: maternal. The source holds these as a separate data set.
The test system of data set [14] is rat. Particulars: Subchronic oral toxicity in rodents, fischer, Water, dose end: 13 week, group: systemic.
The subject of data set [15] is rat. The conditions noted are these: Sub-acute repeat dose toxicity, fischer, Oral, Water, dose end: 14 day, group: systemic.
For data set [16], the system named is rat. The conditions noted are these: Prenatal developmental toxicity study, sprague dawley, Inhalation, Whole-Body, dose end: 15 GD, group: maternal.
Data set [17] concerns rat. Particulars: Subchronic inhalation toxicity, fischer, Whole-Body, dose end: 13 week, group: systemic.
Data set [18] deals with rabbit. Particulars: Prenatal developmental toxicity study, new zealand white, Inhalation, Whole-Body, dose end: 18 GD, group: maternal.
Data set [19] concerns mouse. The conditions noted are these: Carcinogenicity; b6c3f1; Oral; Feed; dose end: 80 week; group: systemic; systemic / pathology microscopic / liver / carcinoma + systemic / pathology microscopic / liver / neoplastic nodule + systemic / in life ….
Data set [20] deals with rat. The conditions noted are these: Carcinogenicity, fischer, Oral, Feed, dose end: 80 week, group: systemic.
Where [21] appears, read: systemic / in life observation / body weight / body weight + systemic / pathology microscopic / urinary bladder / hyperplasia.
[22] abbreviates: systemic / in life observation / body weight / body weight + systemic / pathology microscopic / urinary bladder / hyperplasia + systemic / ….
Where [23] appears, read: systemic / in life observation / body weight / body weight.
[24] abbreviates: systemic / in life observation / body weight / body weight + systemic / pathology microscopic / liver / hepatocellular carcinoma + systemic….
Where [25] appears, read: systemic / clinical chemistry / lactic acid dehydrogenase (ldh) / lactic acid dehydrogenase (ldh) + systemic / clinical chemistry / sorbitol….
[26] abbreviates: systemic / hematology / erythrocyte (rbc) count differential / erythrocyte (rbc) + systemic / hematology / hematocrit (hct) / hematocrit (….
Where [27] appears, read: systemic / pathology microscopic / liver / hematopoietic cell proliferation + systemic / pathology microscopic / liver / hemosiderosis + ….
[28] abbreviates: reproductive / reproductive performance / aborted / aborted + reproductive / reproductive performance / resorptions / resorptions + systemic….
The mark [29] stands for this setting: systemic / hematology / methemoglobin / methemoglobin + systemic / hematology / reticulocyte / reticulocyte.
The mark [30] stands for this setting: systemic / pathology microscopic / nose / degeneration + systemic / pathology microscopic / spleen / hematopoietic cell proliferation + ….
Where [31] appears, read: systemic / hematology / methemoglobin / methemoglobin + systemic / hematology / reticulocyte / reticulocyte + systemic / in life observation….
Setting [32] is: systemic / in life observation / body weight / body weight + systemic / in life observation / body weight / body weight gain + systemic / in….
Setting [33] is: systemic / pathology gross / spleen / enlarged.
Setting [34] is: systemic / in life observation / body weight / body weight + systemic / in life observation / water consumption / water consumption.
[35] abbreviates: systemic / hematology / erythrocyte (rbc) count differential / erythrocyte (rbc) + systemic / hematology / hemoglobin (hgb) / hemoglobin (….
Setting [36] is: systemic / in life observation / body weight / body weight + systemic / in life observation / water consumption / water consumption + ….
Setting [37] is: systemic / in life observation / body weight / body weight gain + systemic / in life observation / clinical signs / red or crusty deposits ….
Setting [38] is: systemic / in life observation / food consumption / food consumption.
The mark [39] stands for this setting: systemic / organ weight / adrenal gland / absolute + systemic / organ weight / adrenal gland / relative to body weight + systemic / organ ….
[40] abbreviates: systemic / in life observation / body weight / body weight gain + systemic / in life observation / clinical signs / oral discharge + ….
Setting [41] is: systemic / in life observation / body weight / body weight + systemic / pathology microscopic / thyroid gland / hyperplasia.
Where [42] appears, read: systemic / in life observation / body weight / body weight + systemic / pathology microscopic / thyroid gland / hyperplasia + systemic / in ….

Each structure is given as a SMILES string.

By LOAEL is commonly meant the lowest tested level that showed an adverse finding. The term NOAEL denotes the highest tested level that showed no adverse finding.

For `COc1ccc(C)cc1N` [2-Methoxy-5-methylaniline], in the data set on rat [1] (setting [21]), the LOAEL was 250 mg/kg/day and the NOAEL is below 250 mg/kg/day. In addition, in the data set with rat [1] (setting [22]), the LEL came to 250 mg/kg/day and the NEL is below 250 mg/kg/day. In the data set with mouse [2] (setting [23]), this molecule yielded an LOAEL of 330 mg/kg/day and an NOAEL below 330 mg/kg/day. Besides, in the data set on mouse [2] (setting [24]), the LEL worked out at 330 mg/kg/day and the NEL was below 330 mg/kg/day.
With `ClC(Cl)(Cl)c1ccccc1` [Benzotrichloride], in the data set on rat [3] (setting [25]), the LOAEL is above 25 mg/kg/day, the NEL turned out to be 0.025 mg/kg/day and the NOAEL was at least 25 mg/kg/day. In the data set on rat [3] (systemic / clinical chemistry / sorbitol dehydrogenase / sorbitol dehydrogenase), this molecule registered an LEL of 0.25 mg/kg/day.
Turning to `CCC(C)=NO` [2-Butanone oxime], the LOAEL with rat [4] (setting [26]) was above 200 mg/kg/day; in the data set on rabbit [5] (setting [28]), above 80 mg/kg/day; in the data set with rat [6] it was above 375 ppm; in the data set with rat [7] it was above 400 mg/kg/day; in the data set with mouse [8] (systemic / pathology microscopic / nose / degeneration + systemic / pathology microscopic / spleen / hematopoietic cell proliferation) it was 755 mg/kg/day; with rat [9] (setting [31]), above 400 mg/kg/day. Further, the LOAEL in the data set with rat [10] (setting [32]) was above 600 mg/kg/day; with mouse [11] (setting [23]) it was 475 mg/kg/day; in the data set with mouse [12], above 375 ppm; in the data set with rabbit [13] (setting [28]) it was above 40 mg/kg/day; with rat [14] (setting [26]), 50 mg/kg/day; in the data set on rat [15] (setting [23]), 280 mg/kg/day. For the same molecule, the NOAEL in the data set on rat [4] (setting [26]) was at least 200 mg/kg/day; in the data set on rabbit [5] (setting [28]), at least 80 mg/kg/day; with rat [6] it was at least 375 ppm; with rat [7], at least 400 mg/kg/day; in the data set on mouse [8] (setting [30]), 515 mg/kg/day; in the data set on rat [9] (setting [31]), at least 400 mg/kg/day. Further, the NOAEL with rat [10] (setting [32]) was at least 600 mg/kg/day; in the data set on mouse [11] (setting [34]) it was 300 mg/kg/day; with mouse [12], at least 375 ppm; in the data set with rabbit [13] (setting [28]), at least 40 mg/kg/day; in the data set on rat [14] (setting [26]), 25 mg/kg/day; with rat [15] (setting [36]), 130 mg/kg/day. In addition, the LEL is 10 mg/kg/day in the data set with rat [4] (setting [27]); 10 mg/kg/day with rabbit [5] (setting [29]); 15 ppm in the data set on rat [6]; 40 mg/kg/day in the data set with rat [7]; 200 mg/kg/day in the data set on mouse [8] (systemic / pathology microscopic / urinary bladder / hyperplasia); 25 mg/kg/day in the data set on rat [9] (setting [29]). Moreover, the LEL was 60 mg/kg/day with rat [10] (setting [33]); 475 mg/kg/day in the data set with mouse [11] (setting [34]); 15 ppm in the data set with mouse [12]; 24 mg/kg/day in the data set with rabbit [13] (systemic / in life observation / body weight / body weight gain + systemic / in life observation / food consumption / food consumption); 25 mg/kg/day in the data set with rat [14] (setting [35]); 130 mg/kg/day with rat [15] (systemic / in life observation / water consumption / water consumption + systemic / organ weight / spleen / absolute + systemic / organ …). Further, the NEL is below 10 mg/kg/day in the data set with rat [4] (setting [27]); below 10 mg/kg/day with rabbit [5] (setting [29]); below 15 ppm in the data set on rat [6]; below 40 mg/kg/day in the data set with rat [7]; 110 mg/kg/day in the data set on mouse [8] (setting [30]); below 25 mg/kg/day in the data set with rat [9] (setting [29]). Besides, the NEL was below 60 mg/kg/day with rat [10] (setting [33]); 300 mg/kg/day with mouse [11] (setting [34]); below 15 ppm in the data set with mouse [12]; 14 mg/kg/day in the data set on rabbit [13] (setting [28]); below 25 mg/kg/day in the data set with rat [14] (setting [35]); 70 mg/kg/day in the data set with rat [15] (setting [36]).
For the molecule `CC(C)c1ccccc1` [Cumene], the figures for the LOAEL in the data set on rat [16] (setting [37]), in the data set on rat [17] (setting [39]) and in the data set on rabbit [18] (setting [40]) were above 1200 ppm, above 1200 ppm and above 2300 ppm, respectively. Also, the NEL is 100 ppm in the data set with rat [16] (setting [37]), 100 ppm with rat [17] (systemic / in life observation / clinical signs / body temperature + systemic / in life observation / clinical signs / motor activity) and below 500 ppm in the data set on rabbit [18] (setting [38]). Besides, the NOAEL in the data set with rat [16] (setting [37]) is at least 1200 ppm; with rat [17] (setting [39]), at least 1200 ppm; in the data set with rabbit [18] (setting [40]) it was at least 2300 ppm. In addition, the LEL in the data set with rat [16] (setting [38]), in the data set with rat [17] (systemic / in life observation / clinical signs / motor activity + systemic / clinical chemistry / glucose / glucose + systemic / hematology…) and in the data set with rabbit [18] (setting [38]) was 500 ppm in each case.
Turning to `COP(=O)(OC)O/C(=C/Cl)c1cc(Cl)c(Cl)cc1Cl` [Tetrachlorovinphos], in the data set with mouse [19], the LEL was found to be 1200 mg/kg/day, the LOAEL is above 2400 mg/kg/day, the NEL is below 1200 mg/kg/day and the NOAEL was at least 2400 mg/kg/day. Moreover, in the data set on rat [20] (setting [41]), the LOAEL came to 212 mg/kg/day and the NOAEL was below 212 mg/kg/day. Moreover, in the data set on rat [20] (setting [42]), the LEL was 212 mg/kg/day and the NEL was below 212 mg/kg/day.

Values taken from EPA's ToxRefDB 2.
